Test results published in the supplement of paper PMC10307832.

How the values were obtained:
Assay in all cases: relative viability (nuclei count vs DMSO), 5 days (fraction); higher = more cells survive
[1] = compound: CN1CCC(CC1)OC2=CC(=C(C=C2)NC3=NC=C4C(=N3)N(C(=O)N4C)C5CCCC5)OC [AZ3146] + Cc1cc(Nc2cc(N3CCN(C)CC3)nc(Sc3ccc(NC(=O)C4CC4)cc3)n2)n[nH]1 [Tozasertib] (partner 0.1 µM)
Procedure, shortened: (§1)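 Lung cancer cell lines in 1536-well plates got either a single drug or a fixed anchor-drug dose together with five library-drug doses (not always all listed) in √10 steps, by pin tool, on the day after seeding. Nuclei were counted after 5 days, and relative viability is the treated-to-vehicle ratio of nuclei counts. Values are medians of duplicate plates.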

[2] = compound: CN1CCC(CC1)OC2=CC(=C(C=C2)NC3=NC=C4C(=N3)N(C(=O)N4C)C5CCCC5)OC [AZ3146] + O=C(CCCCCCC(=O)Nc1ccccc1)NO [Vorinostat] (partner 1 µM)
Procedure, shortened: as §1

[3] = compound: CCOC(=O)CCNc1cc(N2CCc3ccccc3CC2)nc(-c2ccccn2)n1 [GSK-J4] + Nc1ncn([C@H]2C[C@H](O)[C@@H](CO)O2)c(=O)n1 [Decitabine] (partner 2 µM)
Procedure, shortened: as §1

[4] = compound: CCOC(=O)CCNc1cc(N2CCc3ccccc3CC2)nc(-c2ccccn2)n1 [GSK-J4] + C[C@@H](Oc1cc(-c2cnn(C3CCNCC3)c2)cnc1N)c1c(Cl)ccc(F)c1Cl [Crizotinib] (partner 1 µM)
Procedure, shortened: as §1

Row | Cell Line | relative viability ([1]; first compound 0.08 µM) | relative viability ([1]; first compound 0.253 µM) | relative viability ([1]; first compound 0.8 µM) | relative viability ([1]; first compound 2.53 µM) | relative viability ([1]; first compound 8 µM) | relative viability ([2]; first compound 0.08 µM) | relative viability ([2]; first compound 0.8 µM) | relative viability ([2]; first compound 2.53 µM) | relative viability ([2]; first compound 8 µM) | relative viability ([3]; first compound 0.5 µM) | relative viability ([3]; first compound 1.581 µM) | relative viability ([3]; first compound 5 µM) | relative viability ([3]; first compound 15.81 µM) | relative viability ([3]; first compound 50 µM) | relative viability ([4]; first compound 0.5 µM) | relative viability ([4]; first compound 1.581 µM) | relative viability ([4]; first compound 5 µM) | relative viability ([4]; first compound 15.81 µM) | relative viability ([4]; first compound 50 µM) | relative viability ([2]; first compound 0.253 µM)
1 | SW 900 | 0.466 | 0.625 | 0.399 | 0.326 | 0.333 | 0.465 | 0.393 | 0.48 | 0.446 | 0.376 | 0.354 | 0.469 | 0.48 | 0.343 | – | – | – | – | – | –
2 | PC-3 [JPC-3] | 0.829 | 0.905 | 0.855 | 0.877 | 0.715 | 0.554 | 0.803 | 0.66 | 0.713 | 0.883 | 0.735 | 0.801 | 0.876 | 0.781 | 0.912 | 0.882 | 0.952 | 0.926 | 0.814 | –
3 | NCI-H1648 | – | 0.303 | 0.54 | 0.58 | 0.406 | – | 0.554 | 0.498 | 0.634 | 0.569 | – | 0.718 | – | 0.482 | – | – | – | – | – | –
4 | A549 | – | – | – | – | – | – | – | – | – | 0.241 | 0.205 | 0.246 | 0.244 | 0.282 | 0.691 | 0.669 | – | 0.536 | 0.605 | –
5 | A-427 | 0.2 | 0.191 | 0.157 | 0.19 | 0.205 | 0.763 | 0.833 | 0.809 | 0.593 | 0.554 | 0.528 | – | 0.523 | 0.434 | 0.844 | – | 0.852 | 0.591 | 0.362 | 0.881
6 | NCI-H1975 | 0.684 | 0.732 | 0.275 | 0.208 | 0.227 | 0.67 | 0.735 | 0.697 | 0.327 | 0.401 | 0.352 | 0.323 | 0.376 | 0.394 | 0.928 | 1.02 | – | 0.998 | 1 | 0.736
7 | LU99A | 0.279 | 0.269 | 0.248 | 0.238 | 0.245 | – | 0.503 | 0.514 | 0.481 | 0.791 | 0.725 | – | 0.846 | 0.554 | 0.571 | 0.534 | 0.618 | 0.581 | 0.474 | 0.507
8 | NCI-H1755 | 0.519 | 0.696 | 0.678 | 0.766 | 0.588 | 0.71 | 0.599 | 0.789 | 0.765 | 0.727 | 0.569 | 0.641 | 0.61 | 0.709 | 0.841 | 0.821 | 0.891 | 0.733 | 0.772 | 0.804
9 | LOU-NH91 | 0.453 | 0.668 | 0.664 | 0.525 | 0.365 | 0.866 | 0.968 | 1 | 0.832 | 0.789 | 0.798 | 0.703 | 0.774 | 0.805 | 0.756 | 0.711 | 0.674 | 0.695 | 0.712 | 0.837
10 | SW 1573 | 0.208 | 0.162 | 0.179 | 0.164 | 0.195 | 0.636 | 0.643 | 0.723 | 0.307 | 0.592 | 0.645 | 0.436 | 0.442 | 0.204 | 0.701 | 0.726 | 0.832 | 0.754 | 0.608 | 0.767
11 | CAL-12T | 0.263 | 0.3 | 0.209 | 0.247 | 0.235 | 0.695 | 0.832 | 0.778 | 0.553 | – | – | – | – | – | 0.522 | 0.512 | 0.341 | 0.479 | 0.589 | 0.743
12 | NCI-H1734 | 0.225 | 0.264 | 0.279 | 0.275 | 0.29 | 0.646 | 0.782 | 0.795 | 0.584 | 0.542 | 0.447 | 0.507 | 0.492 | 0.376 | 0.645 | 0.637 | 0.576 | 0.57 | 0.486 | 0.886
13 | LCLC-97TM1 | 0.206 | 0.216 | 0.208 | 0.228 | 0.146 | 0.356 | 0.631 | 0.635 | 0.653 | 0.213 | 0.237 | 0.225 | 0.262 | 0.215 | – | – | 0.455 | 0.269 | 0.323 | 0.761
14 | BEN | 0.402 | 0.509 | 0.493 | 0.512 | 0.406 | – | 0.608 | 0.558 | 0.588 | 0.762 | 0.511 | 0.489 | 0.679 | 0.597 | 0.865 | 0.795 | – | 0.759 | 0.688 | 0.54
15 | EBC-1 | – | – | – | – | – | – | – | – | – | – | – | – | – | – | 0.191 | 0.206 | 0.192 | 0.212 | 0.19 | –
16 | COR-L23 | 0.193 | 0.222 | 0.161 | 0.144 | 0.173 | 0.38 | 0.374 | 0.415 | 0.313 | 0.393 | 0.384 | – | 0.386 | 0.352 | 0.671 | 0.567 | – | 0.639 | 0.518 | 0.536
17 | NCI-H2342 | 0.329 | 0.654 | 0.518 | 0.505 | 0.353 | 0.705 | 1.01 | 0.695 | 0.764 | 0.645 | 0.691 | 0.776 | 0.75 | 0.7 | – | – | – | – | – | 0.688
18 | NCI-H522 | 0.533 | 0.512 | 0.582 | 0.455 | 0.587 | 0.66 | 0.945 | 0.903 | 0.835 | 0.776 | 0.611 | – | 0.573 | 0.651 | – | – | – | – | – | 0.695
19 | NCI-H1793 | 0.315 | 0.34 | 0.296 | 0.192 | 0.254 | 0.616 | 0.613 | 0.942 | 0.573 | 0.394 | 0.371 | 0.305 | 0.204 | 0.196 | – | – | – | – | – | 0.682
20 | NCI-H1792 | – | – | – | – | – | – | – | – | – | 0.559 | 0.472 | 0.589 | 0.428 | 0.43 | 0.981 | 0.675 | 0.911 | 0.955 | 0.959 | –
